From ChEMBL document CHEMBL5113492, “Design, synthesis, and biological evalution of bifunctional inhibitors against Hsp90-HDAC6 interplay” (Eur J Med Chem, 2022)
Calls of active or inactive are those of the source. The calls are words filed in the database; no cut-off is given here.

What was measured:
NCI-H1975 [1] = assay: Antitumor activity against NSG mouse xenografted with human NCI-H1975 cells assessed as reduction on tumor growth at 25 mg/kg,ip measured after 6 weeks; type: functional, organism-based
[2] = biological target: T1, Heat shock protein HSP90 (Homo sapiens) (UniProt P07900+P08238); assay: Inhibition of HSP90 in human NCI-H1975 cells assessed as downregulation of Akt expression at 0.05 to 2 uM incubated for 24 hrs by western blot analysis; type: cell-based; settings: dose 0.05-2 µM, DDE = dose-dependent effect
[3] = Toxicity in NSG mouse xenografted with human NCI-H1975 cells assessed as histological abnormalities in ocular region at 50 mg/kg,ip measured after 6 weeks by H and E staining based assay; type: organism-based; settings: in vivo, 1008 h
[4] = biological target: T1, Heat shock protein HSP90 (Homo sapiens); assay: Inhibition of HSP90 in human NCI-H1975 cells assessed as downregulation of Akt expression at 2 uM incubated for 24 hrs by western blot analysis; type: cell-based
NCI-H1975 [5] = assay: Antitumor activity against NSG mouse xenografted with human NCI-H1975 cells assessed as reduction on tumor growth at 25 mg/kg,ip measured after 2 weeks; type: functional, organism-based
Histone deacetylase 3 = Histone deacetylase 3 (Homo sapiens, UniProt O15379); assay: Inhibition of HDAC3 (unknown origin) using fluorogenic substrate incubated for 30 mins by fluorescence plate reader
Histone deacetylase 3, sequence (O15379 whole entry): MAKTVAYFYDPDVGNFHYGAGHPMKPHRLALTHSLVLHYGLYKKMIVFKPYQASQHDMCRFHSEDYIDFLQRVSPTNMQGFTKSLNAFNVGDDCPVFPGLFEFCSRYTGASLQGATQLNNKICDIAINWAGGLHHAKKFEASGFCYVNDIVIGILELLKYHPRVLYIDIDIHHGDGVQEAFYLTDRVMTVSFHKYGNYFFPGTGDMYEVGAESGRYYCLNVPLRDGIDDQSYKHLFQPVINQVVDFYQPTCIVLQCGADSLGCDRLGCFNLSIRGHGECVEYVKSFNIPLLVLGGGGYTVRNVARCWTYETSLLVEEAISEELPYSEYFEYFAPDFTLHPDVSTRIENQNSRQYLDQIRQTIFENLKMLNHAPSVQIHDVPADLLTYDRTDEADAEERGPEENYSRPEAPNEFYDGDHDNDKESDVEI

[6] = biological target: T2, Protein deacetylase HDAC6 (Homo sapiens) (UniProt Q9UBN7); assay: Inhibition of HDAC6 in human NCI-H1975 cells assessed as microtubule polymerization at 1 uM incubated for 24 hrs by DAPI staining based immunofluorescence microscopy; type: cell-based
T2 sequence (whole entry): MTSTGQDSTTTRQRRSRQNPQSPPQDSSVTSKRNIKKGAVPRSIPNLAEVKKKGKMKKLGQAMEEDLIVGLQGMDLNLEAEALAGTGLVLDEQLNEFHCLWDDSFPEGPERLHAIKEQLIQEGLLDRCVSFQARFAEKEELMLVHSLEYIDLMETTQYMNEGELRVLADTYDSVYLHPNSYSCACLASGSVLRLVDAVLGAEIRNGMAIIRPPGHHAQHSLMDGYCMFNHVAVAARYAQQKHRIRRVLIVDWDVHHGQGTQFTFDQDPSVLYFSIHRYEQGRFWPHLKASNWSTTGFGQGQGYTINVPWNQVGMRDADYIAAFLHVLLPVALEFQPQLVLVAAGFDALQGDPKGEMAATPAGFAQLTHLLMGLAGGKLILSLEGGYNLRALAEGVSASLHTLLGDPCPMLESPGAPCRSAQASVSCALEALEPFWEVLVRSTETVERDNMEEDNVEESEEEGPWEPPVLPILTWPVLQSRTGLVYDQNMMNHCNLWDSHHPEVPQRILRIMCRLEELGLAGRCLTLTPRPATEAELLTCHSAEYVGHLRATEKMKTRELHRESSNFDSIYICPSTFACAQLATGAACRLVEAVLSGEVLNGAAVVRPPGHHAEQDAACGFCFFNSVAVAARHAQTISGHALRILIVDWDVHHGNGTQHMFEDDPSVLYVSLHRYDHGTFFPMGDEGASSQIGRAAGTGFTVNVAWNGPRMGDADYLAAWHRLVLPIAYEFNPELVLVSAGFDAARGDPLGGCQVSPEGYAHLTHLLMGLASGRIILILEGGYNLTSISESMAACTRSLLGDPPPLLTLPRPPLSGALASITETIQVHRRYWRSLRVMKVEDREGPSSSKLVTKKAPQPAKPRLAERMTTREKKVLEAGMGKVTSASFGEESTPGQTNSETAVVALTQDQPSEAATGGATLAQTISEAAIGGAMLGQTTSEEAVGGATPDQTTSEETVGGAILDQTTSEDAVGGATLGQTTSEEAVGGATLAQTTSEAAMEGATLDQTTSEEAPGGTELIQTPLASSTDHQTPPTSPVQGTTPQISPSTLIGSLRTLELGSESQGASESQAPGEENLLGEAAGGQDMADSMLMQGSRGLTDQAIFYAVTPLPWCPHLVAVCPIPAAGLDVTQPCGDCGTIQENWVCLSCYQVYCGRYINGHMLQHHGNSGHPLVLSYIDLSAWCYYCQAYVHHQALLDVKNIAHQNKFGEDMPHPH

[7] = Toxicity in NSG mouse xenografted with human NCI-H1975 cells assessed as change in body weight at 25 mg/kg,ip measured after 6 weeks; type: organism-based; settings: in vivo, 1008 h
[8] = biological target: T2, Protein deacetylase HDAC6 (Homo sapiens); assay: Inhibition of HDAC6 in human NCI-H1975 cells assessed as downregulation of HDAC6 expression at 0.05 to 2 uM incubated for 24 hrs by western blot analysis; type: cell-based; settings: dose 0.05-2 µM, DDE = dose-dependent effect
[9] = Toxicity in NSG mouse xenografted with human NCI-H1975 cells assessed as change in body weight at 50 mg/kg,ip measured after 6 weeks; type: organism-based; settings: in vivo, 1008 h
[10] = biological target: T2, Protein deacetylase HDAC6 (Homo sapiens); assay: Inhibition of HDAC6 in human NCI-H1975 cells assessed as increase in acetylation of HSP90-Lys 294 residue at 2 uM incubated for 24 hrs by western blot analysis; type: cell-based
[11] = biological target: T2, Protein deacetylase HDAC6 (Homo sapiens); assay: Inhibition of HDAC6 in human NCI-H1975 cells assessed as increase in acetylation of alpha tubulin at 2 uM incubated for 24 hrs by western blot analysis; type: cell-based
[12] = Toxicity in NSG mouse xenografted with human NCI-H1975 cells assessed as abnormal behavior at 50 mg/kg,ip measured after 6 weeks; type: organism-based; settings: in vivo, 1008 h
[13] = Toxicity in NSG mouse xenografted with human NCI-H1975 cells assessed as change in structure of retina at 50 mg/kg,ip measured after 6 weeks by H and E staining based assay; type: organism-based; settings: in vivo, 1008 h
[14] = biological target: T1, Heat shock protein HSP90 (Homo sapiens); assay: Inhibition of HSP90 in human NCI-H1975 cells assessed as downregulation of Met expression at 2 uM incubated for 24 hrs by western blot analysis; type: cell-based
NCI-H1975 [15] = assay: Antiproliferative activity against human NCI-H1975 cells assessed as growth inhibition incubated upto 72 hrs by CellTiter96 Aqueous One Solution Cell Proliferation assay; type: functional

Structure (SMILES): CC(C)c1cc(C(=O)N(C)Cc2ccc(C(=O)NO)cc2)c(O)cc1O
- Activity (NCI-H1975 [1]): Active
- inhibition [2]: Dde
- Activity [3]: Non-Toxic
- inhibition [4]: Active
- Activity (NCI-H1975 [5]): Active
- IC50 (Histone deacetylase 3): 1540 nM
- inhibition [6]: Active
- Activity [7]: Non-Toxic
- inhibition [8]: Dde
- Activity [9]: Non-Toxic
- inhibition [10]: Active
- inhibition [11]: Active
- Activity [12]: Non-Toxic
- Activity [13]: Non-Toxic
- inhibition [14]: Active
- GI50 (NCI-H1975 [15]): 1700 nM
